Measured values: patent US20240246967A1, “AXL COMPOUNDS” (ARCUS BIOSCIENCES, INC., priority 2021, published 2024)

These compounds were tested against T1, human MER (Homo sapiens, UniProt Q12866) (assay: HTRF KinEASE-TK biochemical potency assay, MER). Conditions: 1 nM MER, 700 μM ATP, 800 nM TK Substrate-biotin.
T1 construct: purchased Invitrogen
T1 sequence (Q12866 21-999): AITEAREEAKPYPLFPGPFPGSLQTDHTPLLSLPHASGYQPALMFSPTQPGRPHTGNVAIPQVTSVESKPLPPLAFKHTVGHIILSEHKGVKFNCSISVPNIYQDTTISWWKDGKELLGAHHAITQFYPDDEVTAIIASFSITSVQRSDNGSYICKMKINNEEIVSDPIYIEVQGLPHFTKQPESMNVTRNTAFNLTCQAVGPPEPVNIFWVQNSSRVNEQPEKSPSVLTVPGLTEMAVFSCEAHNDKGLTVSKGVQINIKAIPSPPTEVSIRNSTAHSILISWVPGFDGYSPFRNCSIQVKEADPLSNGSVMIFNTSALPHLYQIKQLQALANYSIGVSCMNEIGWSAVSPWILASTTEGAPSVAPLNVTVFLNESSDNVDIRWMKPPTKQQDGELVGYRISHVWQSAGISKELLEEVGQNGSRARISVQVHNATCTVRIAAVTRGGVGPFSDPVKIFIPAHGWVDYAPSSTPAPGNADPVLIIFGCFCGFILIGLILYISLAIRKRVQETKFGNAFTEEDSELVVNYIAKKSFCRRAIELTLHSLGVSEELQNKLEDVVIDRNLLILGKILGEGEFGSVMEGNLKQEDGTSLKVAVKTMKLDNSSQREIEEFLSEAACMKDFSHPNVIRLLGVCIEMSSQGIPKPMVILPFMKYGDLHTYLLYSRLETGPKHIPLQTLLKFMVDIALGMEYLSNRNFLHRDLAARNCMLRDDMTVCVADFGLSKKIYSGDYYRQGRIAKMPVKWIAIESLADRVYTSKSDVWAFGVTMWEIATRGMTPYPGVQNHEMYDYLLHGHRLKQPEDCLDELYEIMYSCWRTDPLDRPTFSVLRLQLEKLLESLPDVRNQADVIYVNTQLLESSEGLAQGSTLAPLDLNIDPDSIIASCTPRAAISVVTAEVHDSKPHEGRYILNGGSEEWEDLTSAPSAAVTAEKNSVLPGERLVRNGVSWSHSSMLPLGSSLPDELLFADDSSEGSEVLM
How it was run: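 Recombinant human kinase preincubated 1 h at RT with compound, then reacted 2 h at RT with final 5 nM AXL or 1 nM TYRO3/MER, 800 nM TK Substrate-biotin and 700 μM ATP in HEPES pH 7.4, 10 mM MgCl2, 1% DMSO. Phosphorylation read by HTRF 665/620 ratio, expressed as percent activity.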

IC50	SMILES
100 to 1000 nM	C[C@@H]1CCCN1C1(C)CCc2ccc(-c3cnc4[nH]nc(-c5ccc(C(C)(C)O)nc5)c4c3)cc2CC1 (stereo partly drawn) [Example 22, 2-[5-(5-{7-Methyl-7-[(2R)-2-methylpyrrolidin-1-yl]-6,7,8,9-tetrahydro-5H-benzo[7]annulen-2-yl}-1H-pyrazolo[3,4-b]pyridin-3-yl)pyridin-2-yl]propan-2-ol]
100 to 1000 nM	C[C@@H]1CCCN1C1(C)CCc2ccc(-c3cnc4[nH]nc(-c5ccc(S(N)(=O)=O)cc5)c4c3)cc2CC1 (stereo partly drawn) [Example 95, 4-(5-(7-Methyl-7-((R)-2-methylpyrrolidin-1-yl)-6,7,8,9-tetrahydro-5H-benzo[7]annulen-2-yl)-1H-pyrazolo[3,4-b]pyridin-3-yl)benzenesulfonamide]
100 to 1000 nM	COCCOc1ccc(-c2n[nH]c3ncc(-c4ccc5c(c4)CCC(C)(N4CCC[C@H]4C)CC5)cc23)cc1 (stereo partly drawn) [Example 110, 3-(4-(2-Methoxyethoxy)phenyl)-5-(7-methyl-7-((R)-2-methylpyrrolidin-1-yl)-6,7,8,9-tetrahydro-5H-benzo[7]annulen-2-yl)-1H-pyrazolo[3,4-b]pyridine]
< 100 nM	C[C@@H]1CCCN1C1(C)CCc2ccc(-c3cnc4[nH]nc(-c5ccc(C(N)=O)cc5)c4c3)cc2CC1 (stereo partly drawn) [Example 54, 4-(5-(7-Methyl-7-((R)-2-methylpyrrolidin-1-yl)-6,7,8,9-tetrahydro-5H-benzo[7]annulen-2-yl)-1H-pyrazolo[3,4-b]pyridin-3-yl)benzamide]
> 1000 nM	CC(C)(O)c1ccc(-c2n[nH]c3ncc(-c4ccc5c(c4)CC4CCC(C5)C4N4CCCC4)cc23)cc1Cl (stereo not shown) [Example 61, 2-(2-Chloro-4-{5-[13-(pyrrolidin-1-yl)tricyclo[8.2.1.0^3,8]trideca-3,5,7-trien-5-yl]-1H-pyrazolo[3,4-b]pyridin-3-yl}phenyl)propan-2-ol]
100 to 1000 nM	CC1(N2CCC2)CCc2ccc(-c3cnc4[nH]nc(-c5ccc(S(=O)(=O)C6CC6)cc5)c4c3)cc2CC1 (stereo not shown) [Example 7, 1-(2-{3-[4-(Cyclopropanesulfonyl)phenyl]-1H-pyrazolo[3,4-b]pyridin-5-yl}-7-methyl-6,7,8,9-tetrahydro-5H-benzo[7]annulen-7-yl)azetidine]
100 to 1000 nM	CC(C)(O)c1ccc(-c2n[nH]c3ncc(-c4ccc5c(c4)CCC(N4CCCC4)CC5)cc23)cn1 (stereo not shown) [Example 9, 2-(5-{5-[7-(Pyrrolidin-1-yl)-6,7,8,9-tetrahydro-5H-benzo[7]annulen-2-yl]-1H-pyrazolo[3,4-b]pyridin-3-yl}pyridin-2-yl)propan-2-ol]
> 1000 nM	FC1CN(c2ccc(-c3c[nH]c4ncc(-c5ccc6c(c5)CC[C@@H](N5C7COCC5C7)CC6)cc34)cc2)C1 [Example 127, 6-[(7S)-2-{3-[4-(3-fluoroazetidin-1-yl)phenyl]-1H-pyrrolo[2,3-b]pyridin-5-yl}-6,7,8,9-tetrahydro-5H-benzo[7]annulen-7-yl]-3-oxa-6-azabicyclo[3.1.1]heptane]
> 1000 nM	C[C@@H]1CCCN1C1(C)CCc2ccc(-c3cnc4[nH]nc(-c5ccc(S(=O)(=O)C(F)(F)F)cc5)c4c3)cc2CC1 (stereo partly drawn) [Example 8, (2R)-2-Methyl-1-{7-methyl-2-[3-(4-trifluoromethanesulfonylphenyl)-1H-pyrazolo[3,4-b]pyridin-5-yl]-6,7,8,9-tetrahydro-5H-benzo[7]annulen-7-yl}pyrrolidine]
100 to 1000 nM	COc1cc(-c2n[nH]c3ncc(-c4ccc5c(c4)CCC(C)(N4CCC[C@H]4C)CC5)cc23)ccc1C(N)=O (stereo partly drawn) [Example 53, 2-Methoxy-4-(5-(7-methyl-7-((R)-2-methylpyrrolidin-1-yl)-6,7,8,9-tetrahydro-5H-benzo[7]annulen-2-yl)-1H-pyrazolo[3,4-b]pyridin-3-yl)benzamide]
> 1000 nM	O=S(=O)(c1ccc(-c2n[nH]c3ncc(-c4ccc5c(c4)CCN(C4CCOCC4)CC5)cc23)cc1)C1CC1 [Example 26, 7-{3-[4-(Cyclopropanesulfonyl)phenyl]-1H-pyrazolo[3,4-b]pyridin-5-yl}-3-(oxan-4-yl)-2,3,4,5-tetrahydro-1H-3-benzazepine]
100 to 1000 nM	C[C@@H]1CCCN1C1CCc2ccc(-c3cnc4[nH]nc(-c5ccc(S(N)(=O)=O)c(Cl)c5)c4c3)cc2CC1 (stereo partly drawn) [Example 94, 2-Chloro-4-(5-(7-((R)-2-methylpyrrolidin-1-yl)-6,7,8,9-tetrahydro-5H-benzo[7]annulen-2-yl)-1H-pyrazolo[3,4-b]pyridin-3-yl)benzenesulfonamide]
> 1000 nM	COCCOc1ccc(-c2n[nH]c3ncc(-c4ccc5c(c4)CC[C@@H](N4C6COCC4C6)CC5)cc23)cc1 [Example 123, 6-[(7S)-2-{3-[4-(2-methoxyethoxy)phenyl]-2H-pyrazolo[3,4-b]pyridin-5-yl}-6,7,8,9-tetrahydro-5H-benzo[7]annulen-7-yl]-3-oxa-6-azabicyclo[3.1.1]heptane]
100 to 1000 nM	CC(C)(C)S(=O)(=O)c1ccc(-c2n[nH]c3ncc(-c4ccc5c(c4)CC[C@@H](N4C6COCC4C6)CC5)cc23)cc1 [Example 124, 6-[(7S)-2-{3-[4-(2-methylpropane-2-sulfonyl)phenyl]-2H-pyrazolo[3,4-b]pyridin-5-yl}-6,7,8,9-tetrahydro-5H-benzo[7]annulen-7-yl]-3-oxa-6-azabicyclo[3.1.1]heptane]
100 to 1000 nM	Cc1cc(-c2n[nH]c3ncc(-c4ccc5c(c4)CC[C@@H](N4CCCC4)CC5)cc23)cc(C)c1C(=O)N1CCNCC1 [Example 55, 1-(2,6-Dimethyl-4-{5-[(7S)-7-(pyrrolidin-1-yl)-6,7,8,9-tetrahydro-5H-benzo[7]annulen-2-yl]-1H-pyrazolo[3,4-b]pyridin-3-yl}benzoyl)piperazine]
100 to 1000 nM	CS(=O)(=O)c1ccc(-c2n[nH]c3ncc(-c4ccc5c(c4)CCN(C4CCCC4)CC5)cc23)cc1F [Example 32, 3-Cyclopentyl-7-(3-(3-fluoro-4-(methylsulfonyl)phenyl)-1H-pyrazolo[3,4-b]pyridin-5-yl)-2,3,4,5-tetrahydro-1H-benzo[d]azepine]
> 1000 nM	O=C([C@H]1CCCN1)N1CCc2ccc(-c3cnc4[nH]nc(-c5ccc(S(=O)(=O)C6CC6)cc5)c4c3)cc2CC1 [Example 113, 7-{3-[4-(Cyclopropanesulfonyl)phenyl]-1H-pyrazolo[3,4-b]pyridin-5-yl}-3-[(2R)-pyrrolidine-2-carbonyl]-2,3,4,5-tetrahydro-1H-3-benzazepine]
> 1000 nM	COCCNCc1ccc(-c2n[nH]c3ncc(-c4ccc5c(c4)CCC(C)(N4CCC[C@H]4C)CC5)cc23)cc1 (stereo partly drawn) [Example 108, (2-Methoxyethyl)({[4-(5-{7-methyl-7-[(2R)-2-methylpyrrolidin-1-yl]-6,7,8,9-tetrahydro-5H-benzo[7]annulen-2-yl}-1H-pyrazolo[3,4-b]pyridin-3-yl)phenyl]methyl})amine]
100 to 1000 nM	C[C@H]1CCCN1C1CCc2ccc(-c3cnc4[nH]nc(-c5ccc(S(=O)(=O)C6CC6)cc5)c4c3)cc2CC1 (stereo partly drawn) [Example 24, 3-(4-(Cyclopropylsulfonyl)phenyl)-5-(7-((S)-2-methylpyrrolidin-1-yl)-6,7,8,9-tetrahydro-5H-benzo[7]annulen-2-yl)-1H-pyrazolo[3,4-b]pyridine]
> 1000 nM	Cc1cc(-c2n[nH]c3ncc(-c4ccc5c(c4)CCN(C4CC4)CC5)cc23)ccc1C(=O)N1CCNCC1 [Example 119, 3-Cyclopropyl-7-{3-[3-methyl-4-(piperazine-1-carbonyl)phenyl]-1H-pyrazolo[3,4-b]pyridin-5-yl}-2,3,4,5-tetrahydro-1H-3-benzazepine]
100 to 1000 nM	C[C@@H]1CCCN1C1(C)CCc2ccc(-c3cnc4[nH]nc(-c5cnc(C(C)(C)O)c(Cl)c5)c4c3)cc2CC1 (stereo partly drawn) [Example 98, 2-[3-Chloro-5-(5-{7-methyl-7-[(2R)-2-methylpyrrolidin-1-yl]-6,7,8,9-tetrahydro-5H-benzo[7]annulen-2-yl}-1H-pyrazolo[3,4-b]pyridin-3-yl)pyridin-2-yl]propan-2-ol]
100 to 1000 nM	CC(C)(O)c1ccc(-c2n[nH]c3ncc(-c4ccc5c(c4)CCC(N4CCC[C@@H]4CO)CC5)cc23)cc1Cl (stereo partly drawn) [Example 21, 2-[2-Chloro-4-(5-{7-[(2R)-2-(hydroxymethyl)pyrrolidin-1-yl]-6,7,8,9-tetrahydro-5H-benzo[7]annulen-2-yl}-1H-pyrazolo[3,4-b]pyridin-3-yl)phenyl]propan-2-ol]
